Results taken from US8765459B2, “Apparatus and methods for manipulation and optimization of biological systems” (The Regents of the University of California, priority 2004, dated 2014).

What was measured:
[1] = system: NF-κB; assay: Gur Game closed-loop optimization of cytokine combination, NF-κB GFP reporter in microfluidic channels; assay type: cell-based; conditions: 293T cells with κB4-GFP reporter; 1 h stimulation, GFP read 7 h after; determined by final probability distributions of Gur Game search
Experimental: To implement the Gur Game algorithm, each cytokine was represented by an automaton with 10 discrete states (0, 0.25, 0.5, 1, 2.5, 5, 10, 25, 50, and 100 ng/ml) as shown in FIG. 6. At each iteration, a combination of cytokines at their respective states was applied to stimulate the cells for one hour. […] The GFP expression kinetics is thought to be controlled by protein folding and degradation rates, while the amount of transcription (GFP intensity) is thought to provide an indication of the NF-κB activity. The peak intensities were normalized as the reward function for Gur Game. The reward function maps the system state from 0 to 1, with high GFP intensity corresponds to values nearer 1. For each automaton, a random number from 0 to 1 is chosen and compared with the reward value. The next states of the automata were determined according to a prescribed manner (see FIG. 1). The process was repeated for each cytokine during each iteration.
(§1) Microfluidic systems have been proven to be effective for manipulating different biological objects, such as cells and molecules. In this example, the optimization experiments were conducted inside microfluidic channels to facilitate real-time monitoring and dynamic stimulation of the cells. (In FIGS. 7a, the concentrations of individual cytokines are indicated as follows: TNFα concentrations are plotted as solid squares; TNFβ concentrations are plotted as solid circles; IL-1α concentrations are plotted as solid triangles; IL-1β concentrations are plotted as inverted triangles; EFG concentrations are plotted as open squares; and BAFF concentrations are plotted as open circles.) The initial concentrations of the cytokines were 2.5 ng/ml. In order to monitor the activity of the NF-κB, a plasmid with a green fluorescent protein (GFP) reporter gene was placed in the 293T cell. The GFP expression is controlled by a promoter which consisted of a kappa enhancer element (κB4). Similar configurations have been applied in other studies where the GFP fluorescence intensity was able to reflect the cellular NF-κB activity. In addition, computational analysis was performed to correlate the relationship between the expression level of GPF and the activity of NF-κB. Numerical simulation indicated the best duration and time for cytokine stimulation and GFP intensity measurement. The GFP fluorescence intensity of each cell was recorded 7 hours after the stimulation as shown in FIG. 7B (data represent the average intensity of 40-128 cells).
The Gur Game was used to determine the cytokine concentrations in subsequent iterations to probabilistically drive the system toward a high GFP output, i.e. high NF-κB activity. FIG. 6 is a flow chart illustrating an exemplary Gur Game Algorithm, the algorithm used in this example. A detailed description of this exemplary algorithm is set forth above. The peak intensities were normalized as the reward function for this exemplary Gur Game algorithm. The reward function maps the system state from 0 to 1, with high GFP intensity corresponds to values nearer 1. For each automaton, a random number from 0 to 1 is chosen and compared with the reward value.
The next states of the automata were determined according to a prescribed manner, as illustrated in FIG. 7. The process was repeated for each cytokine during each iteration. Each cytokine as represented by an automaton. The numbers represent the concentration of the cytokines, in ng/ml. During each iteration, a random number was generated for each automaton. The numbers were compared to the reward value. If the reward value was larger than the random number, the automaton was rewarded (win). Otherwise, the automaton was penalized (lose). The automaton then decided the state in the next iteration according to the automaton design. Generally, the state moves toward center if penalized, and away the center if rewarded.
Referring to FIGS. 8aand 8b, initially, the system rejected several cytokine combinations with seemingly high outputs. […]

[2] = system: NF-κB; assay: Sensitivity analysis of individual cytokines in the potent combination, NF-κB GFP reporter, 96-well plates; assay type: cell-based; conditions: 293T cells; for effect on NF-κB activity when varied within the potent cytokine combination / decrease in fluorescence intensity on elimination of the cytokine from the cytokine combination: 96-well plates, other cytokines held constant, 1 h stimulation, fluorescence 7 h after
Experimental: as §1
Experiments were conducted in 96-well plates. The cells were stimulated with the appropriate concentration of cytokines for one hour and washed with fresh media.

## BAFF: cytokine tested in the combination for NF-κB activity
[1]
  concentration in the most potent cytokine combination for activating NF-κB: 2.5 ng/mL
[2]
  effect on NF-κB activity alone, without the potent cytokine combination: minimal effect
  effect on NF-κB activity when varied within the potent cytokine combination: minimal effect

## IL-1β: cytokine used as stimulus of NF-κB activity
[1]
  concentration in the most potent cytokine combination for activating NF-κB: 25 ng/mL
[2]
  decrease in fluorescence intensity on elimination of the cytokine from the cytokine combination: ~30%
  effect on NF-κB activity when varied within the potent cytokine combination: not sensitive to their concentrations in the range of 25-50 ng/ml

## epidermal growth factor [EGF]
[1]
  concentration in the most potent cytokine combination for activating NF-κB: 2.5 ng/mL
[2]
  effect on NF-κB activity alone, without the potent cytokine combination: did not show a strong effect
  effect on NF-κB activity when varied within the potent cytokine combination: decreased the NF-κB activity with increasing dose concentration

## TNFα
[1]
  concentration in the most potent cytokine combination for activating NF-κB: 25 ng/mL
[2]
  decrease in fluorescence intensity on elimination of the cytokine from the cytokine combination: ~50%
  effect on NF-κB activity when varied within the potent cytokine combination: most sensitive in the combination

B1: IL-1α: cytokine used as stimulus of NF-κB activity (protein, UniProt P01583 113-271, looked up)
Interleukin-1 alpha: SAPFSFLSNVKYNFMRIIKYEFILNDALNQSIIRANDQYLTAAALHNLDEAVKFDMGAYKSSKDDAKITVILRISKTQLYVTAQDEDQPVLLKEMPEIPKTITGSETNLLFFWETHGTKNYFTSVAHPNLFIATKQDYWVCLAGGPPSITDFQILENQA
[1]
  concentration in the most potent cytokine combination for activating NF-κB: 50 ng/mL
[2]
  decrease in fluorescence intensity on elimination of the cytokine from the cytokine combination: ~30%
  effect on NF-κB activity when varied within the potent cytokine combination: not sensitive to their concentrations in the range of 25-50 ng/ml

B2: TNFβ: cytokine used as stimulus of NF-κB activity (protein, UniProt P01374 35-205, looked up)
Lymphotoxin-alpha: LPGVGLTPSAAQTARQHPKMHLAHSTLKPAAHLIGDPSKQNSLLWRANTDRAFLQDGFSLSNNSLLVPTSGIYFVYSQVVFSGKAYSPKATSSPLYLAHEVQLFSSQYPFHVPLLSSQKMVYPGLQEPWLHSMYHGAAFQLTQGDQLSTHTDGIPHLVLSPSTVFFGAFAL
[1]
  concentration in the most potent cytokine combination for activating NF-κB: 50 ng/mL
[2]
  decrease in fluorescence intensity on elimination of the cytokine from the cytokine combination: ~30%
